# From patent publication US9056843B2, “Trifluoromethyl-oxadiazole derivatives and their use in the treatment of disease” (NOVARTIS AG, priority 2011, dated 2015)
# Experiments:
# Assay type in all cases: biochemical
# Human recombinant HDAC4 = Human recombinant HDAC4 (Homo sapiens (Human), UniProt P56524); assay: Test 2: HDAC4 assay (fluorogenic substrate, 5 μM acetyl-Gly-Ala-Lys(ε-trifluoroacetyl)-AMC); conditions: Test 2 (values without asterisk)
# Procedure, shortened: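 After the reaction, bovine trypsin (300 nM solution) was added for 15 min at RT to develop the signal; fluorescence read at 360/450 nm. No-enzyme background subtracted; IC50 from 4-parameter logistic fit of dose-response curves.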
# [1] = molecular target: Human recombinant full length HDAC6 (Homo sapiens (Human), UniProt Q9UBN7); assay: Test 4: HDAC6 assay; conditions: Test 4; substrate 5 μM acetyl-Gly-Ala-Lys(acetyl)-AMC
# Procedure, shortened: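 Baculovirus-expressed full-length recombinant human HDAC6 with 5 μM acetyl-Gly-Ala-Lys(acetyl)-AMC substrate, developed with trypsin 15 min at room temperature.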
# [2] = molecular target: Human recombinant full length HDAC1 (Homo sapiens (Human), UniProt Q13547); assay: Test 3: HDAC1 assay; conditions: substrate 5 μM acetyl-Gly-Ala-Lys(acetyl)-AMC
# Procedure, shortened: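 Baculovirus-expressed full-length human HDAC1 with 5 μM acetyl-Gly-Ala-Lys(acetyl)-AMC substrate, developed with trypsin 15 min at room temperature.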
# Sequence of Human recombinant full length HDAC1 (Q13547 whole entry): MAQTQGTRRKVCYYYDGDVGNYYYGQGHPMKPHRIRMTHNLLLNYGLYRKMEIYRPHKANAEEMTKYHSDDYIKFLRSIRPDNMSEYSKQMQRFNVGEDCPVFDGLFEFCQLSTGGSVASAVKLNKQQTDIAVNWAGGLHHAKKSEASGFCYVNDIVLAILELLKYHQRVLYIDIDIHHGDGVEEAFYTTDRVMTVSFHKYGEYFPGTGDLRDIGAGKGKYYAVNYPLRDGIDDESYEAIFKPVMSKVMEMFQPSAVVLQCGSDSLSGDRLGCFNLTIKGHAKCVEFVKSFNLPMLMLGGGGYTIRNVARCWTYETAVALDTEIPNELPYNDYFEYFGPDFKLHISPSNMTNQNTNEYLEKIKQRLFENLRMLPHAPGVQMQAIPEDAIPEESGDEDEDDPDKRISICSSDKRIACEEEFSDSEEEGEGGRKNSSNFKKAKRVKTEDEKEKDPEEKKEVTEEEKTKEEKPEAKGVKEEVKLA
# Sequence of Human recombinant HDAC4 (P56524 2-1084): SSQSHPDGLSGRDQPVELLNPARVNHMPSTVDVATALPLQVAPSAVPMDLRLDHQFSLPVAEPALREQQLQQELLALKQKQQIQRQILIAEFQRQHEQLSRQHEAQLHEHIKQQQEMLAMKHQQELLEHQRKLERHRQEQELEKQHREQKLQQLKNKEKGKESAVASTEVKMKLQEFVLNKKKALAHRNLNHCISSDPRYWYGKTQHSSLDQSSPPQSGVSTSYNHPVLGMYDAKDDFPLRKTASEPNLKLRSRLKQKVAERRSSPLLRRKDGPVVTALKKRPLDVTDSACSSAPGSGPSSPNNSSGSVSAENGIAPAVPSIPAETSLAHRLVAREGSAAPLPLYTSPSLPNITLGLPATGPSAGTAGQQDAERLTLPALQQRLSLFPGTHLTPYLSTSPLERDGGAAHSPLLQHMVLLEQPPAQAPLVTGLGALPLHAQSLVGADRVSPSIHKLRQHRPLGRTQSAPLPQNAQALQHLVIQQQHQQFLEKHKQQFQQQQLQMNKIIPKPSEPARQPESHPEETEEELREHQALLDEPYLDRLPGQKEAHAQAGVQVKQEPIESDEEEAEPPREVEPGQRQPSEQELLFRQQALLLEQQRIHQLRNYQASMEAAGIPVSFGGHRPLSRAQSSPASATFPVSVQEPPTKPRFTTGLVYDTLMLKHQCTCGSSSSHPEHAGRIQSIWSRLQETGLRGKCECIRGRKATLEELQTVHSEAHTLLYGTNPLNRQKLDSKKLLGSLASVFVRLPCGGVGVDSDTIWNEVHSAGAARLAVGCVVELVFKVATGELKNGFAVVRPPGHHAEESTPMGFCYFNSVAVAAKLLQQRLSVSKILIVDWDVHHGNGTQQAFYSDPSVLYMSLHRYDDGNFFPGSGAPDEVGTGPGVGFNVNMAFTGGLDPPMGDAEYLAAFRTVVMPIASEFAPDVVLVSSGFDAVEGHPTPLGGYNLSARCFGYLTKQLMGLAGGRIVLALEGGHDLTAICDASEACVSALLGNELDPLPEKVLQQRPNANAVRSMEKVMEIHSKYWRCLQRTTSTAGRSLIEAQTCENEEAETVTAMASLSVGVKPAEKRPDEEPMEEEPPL
# Sequence of Human recombinant full length HDAC6 (Q9UBN7 whole entry): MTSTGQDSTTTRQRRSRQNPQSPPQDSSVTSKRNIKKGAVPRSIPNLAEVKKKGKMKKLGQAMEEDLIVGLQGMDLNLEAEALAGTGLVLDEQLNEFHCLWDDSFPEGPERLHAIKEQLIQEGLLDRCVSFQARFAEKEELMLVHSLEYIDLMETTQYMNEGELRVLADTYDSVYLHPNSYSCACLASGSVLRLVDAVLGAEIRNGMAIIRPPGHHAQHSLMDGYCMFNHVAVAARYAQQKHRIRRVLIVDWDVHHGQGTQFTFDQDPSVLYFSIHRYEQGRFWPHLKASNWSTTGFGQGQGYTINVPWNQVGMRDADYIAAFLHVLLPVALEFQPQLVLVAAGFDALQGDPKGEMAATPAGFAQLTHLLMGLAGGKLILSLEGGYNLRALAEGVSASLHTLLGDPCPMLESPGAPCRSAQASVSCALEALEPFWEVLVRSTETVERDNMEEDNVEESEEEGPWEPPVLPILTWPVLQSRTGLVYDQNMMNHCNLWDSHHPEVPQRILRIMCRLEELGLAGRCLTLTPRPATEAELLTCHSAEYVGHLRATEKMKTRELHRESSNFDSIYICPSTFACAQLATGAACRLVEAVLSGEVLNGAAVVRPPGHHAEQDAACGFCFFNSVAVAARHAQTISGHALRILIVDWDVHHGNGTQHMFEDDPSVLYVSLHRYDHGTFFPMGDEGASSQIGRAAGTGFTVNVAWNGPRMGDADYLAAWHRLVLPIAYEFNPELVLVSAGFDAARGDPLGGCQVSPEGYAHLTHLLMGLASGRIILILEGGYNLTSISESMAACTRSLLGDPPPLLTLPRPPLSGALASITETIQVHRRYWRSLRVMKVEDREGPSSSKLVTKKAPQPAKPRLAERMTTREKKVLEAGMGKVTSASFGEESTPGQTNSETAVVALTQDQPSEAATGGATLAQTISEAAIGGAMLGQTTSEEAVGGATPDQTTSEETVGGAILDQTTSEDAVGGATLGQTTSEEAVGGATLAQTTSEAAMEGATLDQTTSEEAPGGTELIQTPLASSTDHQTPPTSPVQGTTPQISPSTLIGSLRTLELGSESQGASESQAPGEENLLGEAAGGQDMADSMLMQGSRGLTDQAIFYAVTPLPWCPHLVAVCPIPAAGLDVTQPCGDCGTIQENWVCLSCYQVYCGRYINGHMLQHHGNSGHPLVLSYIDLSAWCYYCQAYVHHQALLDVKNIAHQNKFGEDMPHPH
SMILES,IC50 (Human recombinant HDAC4) [nM],IC50 [1] [nM],IC50 [2] [nM]
"CN(C)CCN(C)S(=O)(=O)c1ccc(-c2noc(C(F)(F)F)n2)cc1 [Example 99, N-(2-(dimethylamino)ethyl)-N-methyl-4-(5-(trifluoromethyl)-1,2,4-oxadiazol-3-yl)benzenesulfonamide]",1350,9900,> 10000
"CC(CN(C)C)N(C)C(=O)c1ccc(-c2noc(C(F)(F)F)n2)cc1F (stereo not drawn) [Example 144, N-(1-(dimethylamino)propan-2-yl)-2-fluoro-N-methyl-4-(5-(trifluoromethyl)-1,2,4-oxadiazol-3-yl)benzamide]",180,> 10000,> 10000
"C[C@H](CN1CCOCC1)NC(=O)c1ccc(-c2noc(C(F)(F)F)n2)cc1F [Example 148, (R)-2-fluoro-N-(1-morpholinopropan-2-yl)-4-(5-(trifluoromethyl)-1,2,4-oxadiazol-3-yl)benzamide]",380,3200,> 10000
"O=C(NC1CCNCC1)c1ccc(-c2noc(C(F)(F)F)n2)cc1 [Example 76, N-(piperidin-4-yl)-4-(5-(trifluoromethyl)-1,2,4-oxadiazol-3-yl)benzamide]",150,3900,> 10000
"O=C(NCCCn1ccnc1)c1ccc(-c2noc(C(F)(F)F)n2)cc1 [Example 40, N-(3-(1 H-imidazol-1-yl)propyl)-4-(5-(trifluoromethyl)-1,2,4-oxadiazol-3-yl)benzamide]",460,4600,> 10000
"COCCN(C)C(=O)c1ccc(-c2noc(C(F)(F)F)n2)cc1 [Example 18, N-(2-methoxyethyl)-N-methyl-4-(5-(trifluoromethyl)-1,2,4-oxadiazol-3-yl)benzamide]",390,> 10000,> 10000
"NC1CCCCC1NC(=O)c1ccc(-c2noc(C(F)(F)F)n2)cc1 (stereo not drawn) [Example 77, N-(2-aminocyclohexyl)-4-(5-(trifluoromethyl)-1,2,4-oxadiazol-3-yl)benzamide]",350,> 10000,> 10000
"Cc1cccc(NS(=O)(=O)c2ccc(-c3noc(C(F)(F)F)n3)cc2)c1 [Example 105, N-m-tolyl-4-(5-(trifluoromethyl)-1,2,4-oxadiazol-3-yl)benzenesulfonamide]",270,470,3600
"O=C(Nc1ccnc(C(F)(F)F)c1)c1ccc(-c2noc(C(F)(F)F)n2)cc1 [Example 74, 4-(5-(Trifluoromethyl)-1,2,4-oxadiazol-3-yl)-N-(2-(trifluoromethyl)pyridin-4-yl)benzamide]",190,8600,> 10000
"CN(C)CCCN(C)S(=O)(=O)c1ccc(-c2noc(C(F)(F)F)n2)cc1 [Example 112, N-(3-(dimethylamino)propyl)-N-methyl-4-(5-(trifluoromethyl)-1,2,4-oxadiazol-3-yl)benzenesulfonamide]",820,9100,> 10000
"O=C(c1ccc(-c2noc(C(F)(F)F)n2)cc1)N1CCCC1 [Example 23, Pyrrolidin-1-yl(4-(5-(trifluoromethyl)-1,2,4-oxadiazol-3-yl)phenyl)methanone]",1500,6000,> 10000
"O=C(NCCO)c1ccc(-c2noc(C(F)(F)F)n2)cc1 [Example 13, N-(2-hydroxyethyl)-4-(5-(trifluoromethyl)-1,2,4-oxadiazol-3-yl)benzamide]",660,8900,> 10000
"CNC(=O)CNC(=O)c1ccc(-c2noc(C(F)(F)F)n2)cc1 [Example 63, N-(2-(methylamino)-2-oxoethyl)-4-(5-(trifluoromethyl)-1,2,4-oxadiazol-3-yl)benzamide]",780,> 10000,> 10000
"O=C(NC1CCCCC1)c1ccc(-c2noc(C(F)(F)F)n2)cc1 [Example 34, N-cyclohexyl-4-(5-(trifluoromethyl)-1,2,4-oxadiazol-3-yl)benzamide]",750,> 10000,> 10000
"CCNC(=O)c1ccc(-c2noc(C(F)(F)F)n2)cc1 [Example 12, N-ethyl-4-(5-(trifluoromethyl)-1,2,4-oxadiazol-3-yl)benzamide]",430,4100,> 10000
"O=C(NCc1ccccc1)c1ccc(-c2noc(C(F)(F)F)n2)cc1 [Example 46, N-benzyl-4-(5-(trifluoromethyl)-1,2,4-oxadiazol-3-yl)benzamide]",780,3300,> 10000

# Compounds with a lower IC50 (Human recombinant HDAC4), results first:
IC50 (Human recombinant HDAC4) [nM],IC50 [1] [nM],IC50 [2] [nM],SMILES
120,> 10000,> 10000,"C[C@@H](CN(C)C)NC(=O)c1ccc(-c2noc(C(F)(F)F)n2)cc1 [Example 82, (S)—N-(1-(dimethylamino)propan-2-yl)-4-(5-(trifluoromethyl)-1,2,4-oxadiazol-3-yl)benzamide]"
97,440,> 10000,"O=S(=O)(Nc1ccc(F)cc1)c1ccc(-c2noc(C(F)(F)F)n2)cc1 [Example 109, N-(4-fluorophenyl)-4-(5-(trifluoromethyl)-1,2,4-oxadiazol-3-yl)benzenesulfonamide]"
93,740,5000,"Cc1ccc(NS(=O)(=O)c2ccc(-c3noc(C(F)(F)F)n3)cc2)cc1 [Example 108, N-p-tolyl-4-(5-(trifluoromethyl)-1,2,4-oxadiazol-3-yl)benzenesulfonamide]"
53,6100,> 10000,"N#Cc1cc(NC(=O)c2ccc(-c3noc(C(F)(F)F)n3)cc2)ccn1 [Example 73, N-(2-cyanopyridin-4-yl)-4-(5-(trifluoromethyl)-1,2,4-oxadiazol-3-yl)benzamide]"
34,> 10000,> 10000,"C[C@H](CN(C)C)NC(=O)c1ccc(-c2noc(C(F)(F)F)n2)cc1 [Example 81, (R)—N-(1-(dimethylamino)propan-2-yl)-4-(5-(trifluoromethyl)-1,2,4-oxadiazol-3-yl)benzamide]"
8.9,> 10000,> 10000,"CCN(C)C[C@@H](C)NC(=O)c1ccc(-c2noc(C(F)(F)F)n2)cc1 [Example 136, (R)—N-(1-(ethyl(methyl)amino)propan-2-yl)-4-(5-(trifluoromethyl)-1,2,4-oxadiazol-3-yl)benzamide]"
5,8300,9200,"CCN(CC)C[C@@H](C)NC(=O)c1ccc(-c2noc(C(F)(F)F)n2)cc1 [Example 132, (R)—N-(1-(diethylamino)propan-2-yl)-4-(5-(trifluoromethyl)-1,2,4-oxadiazol-3-yl)benzamide]"
1.8,2600,2700,"CCCCN(C)C[C@@H](C)NC(=O)c1ccc(-c2noc(C(F)(F)F)n2)cc1F [Example 151, (R)—N-(1-(butyl(methyl)amino)propan-2-yl)-2-fluoro-4-(5-(trifluoromethyl)-1,2,4-oxadiazol-3-yl)benzamide]"
1.6,2400,5100,"CCCN(CC)C[C@@H](C)NC(=O)c1ccc(-c2noc(C(F)(F)F)n2)cc1F [Example 146, (R)—N-(1-(ethyl(propyl)amino)propan-2-yl)-2-fluoro-4-(5-(trifluoromethyl)-1,2,4-oxadiazol-3-yl)benzamide]"
